Laboratory results reported in patent US20060198879A1, “Patch material for ionic medicine administration” (Tokuyama Corporation, priority 2003, published 2006).

Assays:
[1] = Amount of medicine permeated in virtual skin system; format: in vitro ADME; details: 10 mmol/l, 25° C., no voltage
Procedure: (4) Amount of Medicine Permeated in Virtial Skin System
(§1) An aqueous solution containing 10% by mass of a polyvinyl alcohol (NH-20 produced by The Nippon Synthetic Chemical Industry Co., Ltd.) was coated on a filter paper (a chemical analysis filter paper 5C produced by Advantec). The amount of the solution coated was such that the amount of the polyvinyl alcohol after solvent removal was 2 mg/cm^2. Then, the filter paper was allowed to stand at room temperature for 24 hours or more to vaporize the water, whereby was obtained a virtual skin. […] An aqueous solution containing a given concentration of a medicine was filled in a medicine solution chamber 22; and an aqueous solution containing […] by mass of sodium chloride was filled in a virtual skin chamber 23. Then, a permeation test was conducted at 25° C. for a given period of time with the inside of the medicine solution chamber 22 and the inside of the virtual skin chamber 23 being stirred. Right after the completion of the test, the solution inside the virtual skin chamber 23 was withdrawn and used as a sample for measurement. The amount of medicine in the sample was determined using liquid chromatography.

[2] = Amount of medicine permeated in living body skin system; format: in vitro ADME, miniature pig (Yucatane Micropig); details: 10 mmol/l, miniature pig back skin
Procedure: as §1
(5) Amount of Medicine Permeated in Living Body Skin System
The amount of the medicine permeated was measured in the same manner as in the virtual skin system, by replacing the virtual skin (a filter paper coated with a polyvinyl alcohol) with a living body skin, i.e. the back skin of miniature pig (Yucatane Micropig, 5 month-old, female).

[3] = magnesium salt of ascorbic acid-phosphoric acid ester, duration of permeation 1 hr
[4] = magnesium salt of ascorbic acid-phosphoric acid ester, duration of permeation 2 hr
[5] = magnesium salt of ascorbic acid-phosphoric acid ester, duration of permeation 3 hr
[6] = sodium ascorbate, duration of permeation 3 hr

SMILES: O=C1O[C@H]([C@@H](O)CO)C([O-])=C1OP(=O)([O-])[O-].O=C1O[C@H]([C@@H](O)CO)C([O-])=C1OP(=O)([O-])[O-].[Mg+2].[Mg+2].[Mg+2] [Comparative Example 2, magnesium salt of ascorbic acid-phosphoric acid ester]
- Amount of permeation [1, 3]: 0.6 μmol/cm^2
- Amount of permeation [1, 4]: 1.3 μmol/cm^2
- Amount of permeation [1, 5]: 2.0 μmol/cm^2

SMILES: O=C1O[C@H]([C@@H](O)CO)C([O-])=C1O.[Na+] [Comparative Example 4, sodium ascorbate]
- Amount of permeation [1, 6]: 5.2 μmol/cm^2

SMILES: O=C1O[C@H]([C@@H](O)CO)C([O-])=C1OP(=O)([O-])[O-].O=C1O[C@H]([C@@H](O)CO)C([O-])=C1OP(=O)([O-])[O-].[Mg+2].[Mg+2].[Mg+2] [Comparative Example 9, magnesium salt of ascorbic acid-phosphoric acid ester]
- Amount of permeation [2, 3]: 0.010 μmol/cm^2
- Amount of permeation [2, 4]: 0.013 μmol/cm^2
- Amount of permeation [2, 5]: 0.015 μmol/cm^2

SMILES: Cl.Cl.NCCc1c[nH]cn1 [compound 6, histamine dihydrochloride]
- Amount of permeation ([1]; histamine dihydrochloride, duration of permeation 3 hr): 2.5 μmol/cm^2

SMILES: O=C1O[C@H]([C@@H](O)CO)C([O-])=C1O.[Na+] [compound 8, sodium ascorbate]
- Amount of permeation ([2]; sodium ascorbate, duration of permeation 1 hr): 0.003 μmol/cm^2
- Amount of permeation ([2]; sodium ascorbate, duration of permeation 2 hr): 0.005 μmol/cm^2
- Amount of permeation [2, 6]: 0.007 μmol/cm^2
